According to patent US7572612B2, “Method of production of para-hydroxycinnamic acid using a thermostable TAL enzyme” (E.I. du Pont de Nemours and Company, priority 2006, dated 2009):

Columns and labels:
[1] = system: Phanerochaete chrysosporium tyrosine ammonia lyase PcTAL (PAL/TAL enzyme), wild type, SEQ ID NO:1; assay: PcTAL substrate test with histidine; format: biochemical; conditions: 20 mM histidine, 100 mM diethanol amime at pH 9, 1.3 mM 2-mercaptoethanol, 0.1 mM MnCl2
Description: The increase of TAL and PAL activities with increasing substrate concentrations followed the typical Michaelis-Menton equation. The kcat of the enzyme was 1.3 S^−1 for tyrosine, and 3.3 S^−1 for phenylalanine. The KM was 44 μM for tyrosine and 161 μM for phenylalanine. The kcat/KM value was slightly higher for tyrosine (3.0 M^−1 S^−1) than for phenylalanine (2.1 M^−1 S^−1), indicating the enzyme's slight preference for tyrosine (PAL/TAL ratio of 0.7). […] The substrate specificity of the PcTAL enzyme is therefore similar to other known fungal PAL/TAL enzymes, such as that from R. glutinis, with dual specificity for tyrosine and phenylalanine.

[2] = system: Phanerochaete chrysosporium tyrosine ammonia lyase PcTAL (PAL/TAL enzyme), wild type, SEQ ID NO:1; assay: Kinetic parameters of the PcTAL enzyme for tyrosine and phenylalanine; format: biochemical; conditions: 45° C., 100 mM CAPS, pH 9.5 buffer
Description: The PAL and TAL activities of the purified enzymes were measured using a spectrophotometer according to Abell et al., [Phenylalanine Ammonia-lyase from Yeast Rhodotorula glutinis,” Methods Enzymol. 142:242-248 (1987)]. The assay for PAL determination was initiated by addition of the enzyme to a 50 mM Tris-HCl (pH 8.5) buffer solution containing 1.0 mM L-phenylalanine. The reaction was followed by monitoring the CA production at λ290 nm and the activity was calculated using a molar extinction coefficient of […]. The assay was run over a 5 min period using an amount of enzyme that produced absorbance changes in the range of 0.0075 to 0.018/min. One unit of activity indicated deamination of 1.0 micro-mol of phenylalanine to CA per minute. The TAL activity was similarly measured using tyrosine, instead of phenylalanine, in the reaction solution. The absorbance of the pHCA produced was followed at λ315 nm and the activity was determined using an extinction coefficient of 10,000 cm^−1 for pHCA. One unit of activity indicated deamination of 1.0 micro-mol of tyrosine to pHCA per minute. Some TAL assays were performed at pH 9.5 or 10.0 in 100 mM CAPS buffer. The TAL activity was measured as described above, except that the extinction coefficient was 16,800 cm^−1 for pHCA.
The TAL assay was typically performed in a 1.5 ml capacity UV grade disposable cuvette (VWR) at 35° C. using a Perkin-Elmer Lamba20 spectrophotometer (Wellesley, Mass.). The reaction (1.0 ml volume) contained the soluble protein sample, 100 mM CAPS pH10 buffer and 10 mM tyrosine and was monitored for 3 minutes at I315 nm. The TAL activity (U/g) was calculated as follows: Total TAL activity (mM/min)=D315 nm/min×[…] divided by pHCA extinction coefficient (M^−1 cm^−1)=D315 nm/min×[…] divided by 16,800 (M^−1 cm^−1). TAL specific activity (U/g)=total TAL activity (mM/min) divided by the amount of protein used in the assay. Gel Electrophoresis
Six grams of cell pellet, from the 10 liter fermentation of DPD5154 was resuspended in 6.0 mL Buffer A (10 mM Tris-HCl, pH 8.0, 200 μM EDTA) containing one EDTA-free protease inhibitor tablet (Roche Biosciences, Palo Alto, Calif.), 1.0 μg/ml Leupeptin, 1.0 μg/ml Pepstatin, 40 μg/ml Bestatin 5.0 mM CA. Cells were lysed by two passes through a French Pressure Cell at 20,000 PSI, and clarified by centrifugation at 12,000×g for 20 minutes. To the clarified supernatant, 1.0% streptomycin sulfate was added, and the suspension was gently mixed for 15 minutes at 4° C. and then clarified by centrifugation at 12,000×g for 20 minutes. The supernatant was heated at 60° C. for 20 min, and centrifuged again at 12,000×g for 20 minutes. […]

N[C@@H](Cc1c[nH]cn1)C(=O)O [histidine]
acceptance as a substrate [1]: did not accept histidine as a substrate

N[C@@H](Cc1ccccc1)C(=O)O [phenylalanine]
Km [2]: 161 µM | kcat [2]: 3.3 S^−1

N[C@@H](Cc1ccc(O)cc1)C(=O)O [tyrosine]
Km [2]: 44 µM | kcat [2]: 1.3 S^−1
